Source: ChEMBL document CHEMBL1201862, “PubChem BioAssay data set” (2004)
Several values for one entry are separate records, joined by “and”; a condition that tells them apart may be missing. Equal values may be shown once. Activity calls are given as the source filed them.

Tests used:
[1] = target: T1, Dual specificity protein phosphatase 6 (Rattus norvegicus, UniProt Q64346); assay: MKP-3 phosphatase inhibitors, primary screen, biochemical, rat enzyme, in vitro (AID 425)
T1 sequence (Q64346 whole entry): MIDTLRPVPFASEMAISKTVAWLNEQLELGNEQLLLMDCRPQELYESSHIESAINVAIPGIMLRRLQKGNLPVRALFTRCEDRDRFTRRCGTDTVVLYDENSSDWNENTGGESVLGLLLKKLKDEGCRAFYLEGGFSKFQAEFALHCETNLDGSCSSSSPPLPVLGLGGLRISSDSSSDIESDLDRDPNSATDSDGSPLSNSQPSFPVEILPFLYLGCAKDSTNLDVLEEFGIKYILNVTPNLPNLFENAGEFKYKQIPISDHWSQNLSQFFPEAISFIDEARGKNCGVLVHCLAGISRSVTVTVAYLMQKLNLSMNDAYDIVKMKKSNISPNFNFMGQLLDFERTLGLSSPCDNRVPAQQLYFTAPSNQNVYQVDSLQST

[2] = target: Intestinal-type alkaline phosphatase (Mus musculus, UniProt P24822); assay: mouse intestinal alkaline phosphatase activators, dose response, biochemical, luminescence, uHTS hits (AID 488783); format: functional
Intestinal-type alkaline phosphatase (Mus musculus, UniProt P24822), sequence (P24822 whole entry): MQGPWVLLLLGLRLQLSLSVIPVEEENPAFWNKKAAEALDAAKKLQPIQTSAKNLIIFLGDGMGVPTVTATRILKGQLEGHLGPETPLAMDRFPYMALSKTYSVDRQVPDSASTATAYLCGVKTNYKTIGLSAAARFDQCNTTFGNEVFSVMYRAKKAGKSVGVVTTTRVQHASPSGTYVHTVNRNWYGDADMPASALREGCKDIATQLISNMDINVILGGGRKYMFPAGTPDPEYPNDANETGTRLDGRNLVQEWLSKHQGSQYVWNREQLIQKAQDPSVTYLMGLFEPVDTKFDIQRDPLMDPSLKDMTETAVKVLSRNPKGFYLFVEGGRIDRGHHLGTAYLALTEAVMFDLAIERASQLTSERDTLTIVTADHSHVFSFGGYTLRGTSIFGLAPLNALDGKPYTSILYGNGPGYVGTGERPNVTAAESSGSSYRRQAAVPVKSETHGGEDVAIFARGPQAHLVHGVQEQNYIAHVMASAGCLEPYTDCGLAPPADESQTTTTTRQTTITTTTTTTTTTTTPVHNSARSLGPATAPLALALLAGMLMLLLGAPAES

[3] = target: T2, Alkaline phosphatase, tissue-nonspecific isozyme (Homo sapiens, UniProt P05186); assay: TNAP enzyme activators, dose response, selectivity assay for mouse IAP activator project, biochemical, TNAP isozyme, mouse IAP uHTS hits (AID 488880); format: functional
T2 sequence (P05186 whole entry): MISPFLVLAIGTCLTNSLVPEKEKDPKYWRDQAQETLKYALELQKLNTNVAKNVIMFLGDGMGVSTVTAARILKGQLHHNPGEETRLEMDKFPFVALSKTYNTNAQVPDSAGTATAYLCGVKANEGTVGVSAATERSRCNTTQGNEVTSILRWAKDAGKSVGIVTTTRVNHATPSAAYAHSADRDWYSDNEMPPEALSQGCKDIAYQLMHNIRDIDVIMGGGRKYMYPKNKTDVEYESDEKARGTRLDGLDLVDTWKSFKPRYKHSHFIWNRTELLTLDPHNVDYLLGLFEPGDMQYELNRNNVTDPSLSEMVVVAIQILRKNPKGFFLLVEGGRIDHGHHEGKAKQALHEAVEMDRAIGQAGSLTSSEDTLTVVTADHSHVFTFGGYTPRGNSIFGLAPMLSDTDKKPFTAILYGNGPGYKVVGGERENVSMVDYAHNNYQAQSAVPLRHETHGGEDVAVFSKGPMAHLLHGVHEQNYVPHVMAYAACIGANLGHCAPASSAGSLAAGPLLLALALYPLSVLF

[4] = target: Intestinal-type alkaline phosphatase (Homo sapiens, UniProt P09923); assay: activation of human intestinal alkaline phosphatase – biochemical, dose response (AID 488873); format: functional
[5] = target: Beta-adrenergic receptor kinase 1 (Homo sapiens, UniProt P25098); assay: aptamer displacement from bead-bound GRK2 – biochemical, cherry pick 1, bead flow cytometry, dose response (AID 504500)
[6] = tested on: Escherichia coli; assay: microbe, parasite or virus in culture
[7] = A Cell-Based Confirmatory Screen for Compounds that Inhibit VEEV, TC-83 (8).; format: functional
[8] = tested on: Vero; assay: cells; format: functional, cell-based; conditions: Chlorocebus sabaeus
[9] = A Cell-Based Confirmatory Screen for Compounds that Inhibit VEEV, TC-83 (3).; format: functional
[10] = A Cell-Based Confirmatory Screen for Compounds that Inhibit VEEV, TC-83 (2).; format: functional
[11] = A Cell-Based Confirmatory Screen for Compounds that Inhibit VEEV, TC-83 (6).; format: functional
[12] = A Cell-Based Confirmatory Screen for Compounds that Inhibit VEEV TC-83 (4).; format: functional
[13] = A Cell-Based Confirmatory Screen for Compounds that Inhibit VEEV, TC-83 (7).; format: functional
[14] = A Cell-Based Counter Screen testing Compounds that Inhibit VEEV TC-83, in strain KU V3526.; format: functional
[15] = growth induction of Burl-1 ts yeast mutant, dose response, counter-screen for SUMOylation pathway inhibitor project, whole organism, S. cerevisiae, luminescence (AID 463199); format: functional
[16] = tested on: HeLa; assay: HeLa cell cytotoxicity, dose response, cytotoxicity control for MITF activator project, CellTiter-Glo luminescence, cherry-pick samples (AID 540259); format: functional, cell-based; conditions: Homo sapiens
[17] = tested on: H4; assay: Luminescence Cell-Based Dose Response HTS to Identify Activators of 5'UTR Stem-Loop Driven Prion Protein mRNA Translation in H4 Neuroglioblastoma Cells. [Related pubchem assays: 1829 (Project Summary), 1814 (Primary HTS)]; format: functional; conditions: Homo sapiens
[18] = Luminescence Cell-Based Dose Response HTS to Identify Activators of Luciferase Translation or Activity in H4 […] Cells. [Related pubchem assays: 1829 (Project Summary), 1814 (Primary HTS)]; format: functional
[19] = target: Lysine-specific demethylase 4C (Homo sapiens, UniProt Q9H3R0); assay: GASC-1 (JMJD2C) histone demethylase inhibitors, dose response, biochemical, DELFIA europium, cherry-picked samples (AID 488835); format: functional
Lysine-specific demethylase 4C, sequence (Q9H3R0 whole entry): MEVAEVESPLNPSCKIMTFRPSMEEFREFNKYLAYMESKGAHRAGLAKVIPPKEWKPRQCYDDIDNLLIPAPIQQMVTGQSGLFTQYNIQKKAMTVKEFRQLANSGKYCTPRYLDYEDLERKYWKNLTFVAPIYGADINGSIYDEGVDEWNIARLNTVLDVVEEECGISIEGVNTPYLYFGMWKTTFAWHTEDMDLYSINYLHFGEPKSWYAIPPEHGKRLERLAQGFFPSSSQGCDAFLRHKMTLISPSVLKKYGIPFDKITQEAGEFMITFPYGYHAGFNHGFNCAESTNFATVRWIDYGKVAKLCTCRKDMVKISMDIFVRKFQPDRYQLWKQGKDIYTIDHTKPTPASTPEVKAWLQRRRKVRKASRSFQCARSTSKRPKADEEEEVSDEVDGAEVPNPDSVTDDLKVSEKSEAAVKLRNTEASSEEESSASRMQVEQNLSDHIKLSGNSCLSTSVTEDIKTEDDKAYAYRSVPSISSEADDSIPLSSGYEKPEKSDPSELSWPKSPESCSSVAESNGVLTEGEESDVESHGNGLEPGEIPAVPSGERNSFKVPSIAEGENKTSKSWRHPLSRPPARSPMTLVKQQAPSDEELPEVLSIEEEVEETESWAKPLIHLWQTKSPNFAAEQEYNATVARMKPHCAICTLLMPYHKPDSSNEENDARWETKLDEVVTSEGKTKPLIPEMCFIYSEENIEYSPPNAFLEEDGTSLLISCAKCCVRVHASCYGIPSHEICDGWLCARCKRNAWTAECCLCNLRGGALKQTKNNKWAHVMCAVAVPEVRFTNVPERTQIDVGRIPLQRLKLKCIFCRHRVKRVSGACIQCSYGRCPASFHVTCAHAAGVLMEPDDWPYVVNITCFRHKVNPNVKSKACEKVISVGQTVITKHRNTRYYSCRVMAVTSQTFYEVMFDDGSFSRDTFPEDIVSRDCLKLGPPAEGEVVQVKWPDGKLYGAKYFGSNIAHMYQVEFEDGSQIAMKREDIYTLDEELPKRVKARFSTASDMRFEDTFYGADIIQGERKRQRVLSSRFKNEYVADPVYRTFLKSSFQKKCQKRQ

[20] = tested on: HEK293; assay: NOD1 signaling inhibitors, primary screen, cell-based, luminescence, uHTS (AID 1578); format: functional; conditions: Homo sapiens
[21] = target: Nucleotide-binding oligomerization domain-containing protein 1 (Homo sapiens, UniProt Q9Y239); assay: NOD1 signaling inhibitors, SAR follow-up, revised (AID 2333); format: functional
Nucleotide-binding oligomerization domain-containing protein 1, sequence (Q9Y239 whole entry, the tested form may be a part): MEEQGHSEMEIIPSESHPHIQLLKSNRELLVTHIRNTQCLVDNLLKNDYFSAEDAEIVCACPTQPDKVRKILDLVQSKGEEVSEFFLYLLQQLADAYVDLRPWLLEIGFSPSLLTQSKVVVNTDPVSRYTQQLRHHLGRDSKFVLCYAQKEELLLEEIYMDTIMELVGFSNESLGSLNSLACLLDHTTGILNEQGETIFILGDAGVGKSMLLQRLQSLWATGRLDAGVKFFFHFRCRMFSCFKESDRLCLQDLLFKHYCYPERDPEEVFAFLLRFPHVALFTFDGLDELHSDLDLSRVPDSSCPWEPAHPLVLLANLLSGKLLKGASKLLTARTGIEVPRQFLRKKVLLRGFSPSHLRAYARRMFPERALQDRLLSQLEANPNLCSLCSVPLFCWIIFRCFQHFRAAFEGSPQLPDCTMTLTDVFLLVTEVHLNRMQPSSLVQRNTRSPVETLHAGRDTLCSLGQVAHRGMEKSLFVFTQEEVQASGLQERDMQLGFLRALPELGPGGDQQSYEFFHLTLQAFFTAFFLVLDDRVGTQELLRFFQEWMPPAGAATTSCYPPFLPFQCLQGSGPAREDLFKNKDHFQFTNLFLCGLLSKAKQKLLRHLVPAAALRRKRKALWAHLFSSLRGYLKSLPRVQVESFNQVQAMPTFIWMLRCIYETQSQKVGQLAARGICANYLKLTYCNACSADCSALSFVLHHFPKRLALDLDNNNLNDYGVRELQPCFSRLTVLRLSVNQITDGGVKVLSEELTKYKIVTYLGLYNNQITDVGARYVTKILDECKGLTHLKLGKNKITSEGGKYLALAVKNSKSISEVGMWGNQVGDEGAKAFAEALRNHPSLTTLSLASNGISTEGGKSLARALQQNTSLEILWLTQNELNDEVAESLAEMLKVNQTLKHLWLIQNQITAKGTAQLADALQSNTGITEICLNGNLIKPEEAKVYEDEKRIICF

[22] = target: Nucleotide-binding oligomerization domain-containing protein 2 (Homo sapiens, UniProt Q9HC29); assay: PubChem AID 2334; format: functional
[23] = tested on: HEK293; assay: cells; conditions: Homo sapiens
[24] = tested on: HEK293; assay: cells; format: functional, cell-based; conditions: Homo sapiens
[25] = tested on: HEK293; assay: cells; format: functional, cell-based; conditions: Homo sapiens; remark: listed apart in the source
[26] = target: T3, Long-chain-fatty-acid--AMP ligase FadD28 (Mycobacterium tuberculosis, UniProt P9WQ59); assay: Fluorescence polarization aasay to screen for inhibitors that compete for the binding of FadD28 to a bisubstrate Measured in Biochemical System Using Plate Reader - 2147-01_Inhibitor_Dose_CherryPick_Activity.; format: functional, Mycobacterium tuberculosis H37Rv
T3 sequence (P9WQ59 whole entry): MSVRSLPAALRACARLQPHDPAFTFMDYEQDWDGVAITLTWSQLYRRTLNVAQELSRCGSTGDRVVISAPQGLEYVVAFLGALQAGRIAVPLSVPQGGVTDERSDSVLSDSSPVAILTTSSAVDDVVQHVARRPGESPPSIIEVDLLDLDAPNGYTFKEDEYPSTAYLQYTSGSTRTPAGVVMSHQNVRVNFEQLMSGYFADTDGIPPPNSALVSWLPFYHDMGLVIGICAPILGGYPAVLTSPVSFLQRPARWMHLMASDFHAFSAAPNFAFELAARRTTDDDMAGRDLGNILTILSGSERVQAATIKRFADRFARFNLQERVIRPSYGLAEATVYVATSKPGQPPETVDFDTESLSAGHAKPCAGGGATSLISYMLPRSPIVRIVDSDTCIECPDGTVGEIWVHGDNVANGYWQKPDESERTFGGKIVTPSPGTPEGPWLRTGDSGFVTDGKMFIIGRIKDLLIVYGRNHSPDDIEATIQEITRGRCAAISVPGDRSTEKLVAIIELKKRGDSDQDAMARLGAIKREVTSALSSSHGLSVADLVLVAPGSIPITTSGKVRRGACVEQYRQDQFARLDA

[27] = target: Tumor necrosis factor (Homo sapiens, UniProt P01375); assay: TNFa-triggered NF-kB activation inhibitors, SAR follow-up, cell-based, revised (AID 2337); format: functional
Tumor necrosis factor, sequence (P01375 whole entry): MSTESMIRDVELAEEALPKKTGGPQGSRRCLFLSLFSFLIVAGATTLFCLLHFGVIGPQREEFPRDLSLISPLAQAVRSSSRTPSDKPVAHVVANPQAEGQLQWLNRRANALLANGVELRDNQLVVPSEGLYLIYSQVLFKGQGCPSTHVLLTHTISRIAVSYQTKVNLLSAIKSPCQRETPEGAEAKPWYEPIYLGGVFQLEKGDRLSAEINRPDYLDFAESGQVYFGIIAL

[28] = tested on: HEK293; assay: NOD2 signaling inhibitors in MDP-stimulated cells, cell-based, uHTS, luminescence (AID 2001); format: functional; conditions: Homo sapiens
[29] = tested on: A-375; assay: A375 melanoma cell viability reduction, dose response, counter-screen for MITF modulator project, cherry-pick samples, set 2 (AID 540335); format: functional, cell-based; conditions: Homo sapiens
[30] = target: Peroxisome proliferator-activated receptor gamma/Nuclear receptor coactivator 2 (Homo sapiens, UniProt P37231); format: functional;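 further: agonist potency for raising coactivator recruitment to the receptor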
[31] = tested on: A-375; assay: MITF: Counter assay: A375 proliferation Measured in Cell-Based System Using Plate Reader - 2084-03_Inhibitor_Dose_DryPowder_Activity. [Related pubchem assays (depositor defined):AID488944]; format: functional; conditions: Homo sapiens
[32] = target: Peroxisome proliferator-activated receptor gamma/Nuclear receptor coactivator 3 (Homo sapiens, UniProt P37231); format: functional;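 further: agonist potency for raising coactivator recruitment to the receptor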
[33] = target: Peroxisome proliferator-activated receptor gamma/Nuclear receptor coactivator 1 (Homo sapiens, UniProt P37231); format: functional;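 further: agonist potency as compounds enhance coactivator SRC-1 recruitment to PPARgamma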
[34] = target: Voltage-gated inwardly rectifying potassium channel KCNH2 (Homo sapiens, UniProt Q12809); conditions: Potency;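 further: confirmatory quantitative high-throughput screen measuring inhibition of hERG channel activity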
Voltage-gated inwardly rectifying potassium channel KCNH2, sequence (Q12809 whole entry): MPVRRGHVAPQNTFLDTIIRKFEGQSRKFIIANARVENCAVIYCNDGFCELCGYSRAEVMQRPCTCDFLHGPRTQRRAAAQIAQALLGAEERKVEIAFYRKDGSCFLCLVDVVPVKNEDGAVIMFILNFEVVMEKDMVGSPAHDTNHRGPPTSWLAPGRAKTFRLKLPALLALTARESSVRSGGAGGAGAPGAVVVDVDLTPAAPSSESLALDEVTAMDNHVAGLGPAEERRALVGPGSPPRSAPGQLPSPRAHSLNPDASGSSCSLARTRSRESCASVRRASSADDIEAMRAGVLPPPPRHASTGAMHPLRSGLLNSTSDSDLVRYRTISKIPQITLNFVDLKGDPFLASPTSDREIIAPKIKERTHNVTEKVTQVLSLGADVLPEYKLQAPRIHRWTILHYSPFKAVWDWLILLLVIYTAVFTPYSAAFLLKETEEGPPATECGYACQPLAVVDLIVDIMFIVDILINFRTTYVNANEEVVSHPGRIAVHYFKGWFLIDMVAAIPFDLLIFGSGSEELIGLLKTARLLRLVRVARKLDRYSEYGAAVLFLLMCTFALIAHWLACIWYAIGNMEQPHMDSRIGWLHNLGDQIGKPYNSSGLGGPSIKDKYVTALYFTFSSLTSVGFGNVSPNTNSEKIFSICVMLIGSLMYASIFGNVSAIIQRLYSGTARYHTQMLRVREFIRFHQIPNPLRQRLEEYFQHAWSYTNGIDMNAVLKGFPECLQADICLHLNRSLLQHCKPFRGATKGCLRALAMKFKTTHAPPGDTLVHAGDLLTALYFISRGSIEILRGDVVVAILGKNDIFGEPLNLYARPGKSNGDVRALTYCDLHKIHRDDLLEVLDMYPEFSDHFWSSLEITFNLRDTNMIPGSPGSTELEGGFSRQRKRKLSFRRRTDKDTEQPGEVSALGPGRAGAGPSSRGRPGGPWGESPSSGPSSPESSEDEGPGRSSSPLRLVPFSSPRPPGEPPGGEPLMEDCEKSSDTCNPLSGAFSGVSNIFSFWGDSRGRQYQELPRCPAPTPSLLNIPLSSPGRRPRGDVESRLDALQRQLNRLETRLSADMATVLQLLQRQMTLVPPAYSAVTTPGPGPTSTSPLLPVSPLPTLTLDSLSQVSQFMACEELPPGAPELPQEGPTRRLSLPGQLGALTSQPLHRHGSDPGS

[35] = target: Phospholipase D2 (Homo sapiens, UniProt O14939); assay: PLD2 inhibitor potency in cells, dose response (AID 602147); format: functional;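 further: cellular assay in HEK293 cells overexpressing GFP-tagged PLD2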
[36] = target: T4, Phospholipase D1 (Homo sapiens, UniProt Q13393); assay: PLD1 inhibitor potency in cells, dose response (AID 602151); format: functional;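 further: cellular PLD1 assay in Calu-1 cells stimulated with PMA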
T4 sequence (Q13393 whole entry): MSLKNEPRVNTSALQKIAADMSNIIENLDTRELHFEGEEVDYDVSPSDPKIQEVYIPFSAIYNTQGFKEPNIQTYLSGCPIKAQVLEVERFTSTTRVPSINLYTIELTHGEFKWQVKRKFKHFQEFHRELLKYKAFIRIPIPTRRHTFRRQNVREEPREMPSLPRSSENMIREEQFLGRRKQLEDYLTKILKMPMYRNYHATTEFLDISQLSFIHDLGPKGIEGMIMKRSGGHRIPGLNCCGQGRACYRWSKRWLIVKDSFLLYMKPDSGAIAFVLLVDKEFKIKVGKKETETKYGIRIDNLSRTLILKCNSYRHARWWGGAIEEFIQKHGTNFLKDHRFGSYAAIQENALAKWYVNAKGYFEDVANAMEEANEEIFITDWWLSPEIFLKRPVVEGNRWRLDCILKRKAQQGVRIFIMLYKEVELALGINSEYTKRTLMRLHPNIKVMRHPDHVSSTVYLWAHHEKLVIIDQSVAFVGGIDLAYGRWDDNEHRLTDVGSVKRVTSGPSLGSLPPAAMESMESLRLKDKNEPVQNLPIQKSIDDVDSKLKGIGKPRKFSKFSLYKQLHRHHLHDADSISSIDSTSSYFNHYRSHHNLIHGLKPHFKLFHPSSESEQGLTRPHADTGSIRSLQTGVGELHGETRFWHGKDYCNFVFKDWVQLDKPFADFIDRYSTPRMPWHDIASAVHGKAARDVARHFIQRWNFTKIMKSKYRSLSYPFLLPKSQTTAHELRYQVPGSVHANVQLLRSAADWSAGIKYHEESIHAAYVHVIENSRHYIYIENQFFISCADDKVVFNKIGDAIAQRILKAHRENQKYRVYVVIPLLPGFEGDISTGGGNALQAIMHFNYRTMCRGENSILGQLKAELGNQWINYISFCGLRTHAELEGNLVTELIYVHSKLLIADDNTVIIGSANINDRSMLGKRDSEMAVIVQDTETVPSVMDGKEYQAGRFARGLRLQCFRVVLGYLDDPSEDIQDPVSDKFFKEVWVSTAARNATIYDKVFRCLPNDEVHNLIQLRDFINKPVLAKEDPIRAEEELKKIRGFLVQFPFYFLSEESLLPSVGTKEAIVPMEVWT

[37] = target: T4, Phospholipase D1; assay: PLD1 purified enzyme concentration response. [Related pubchem assays (depositor defined):AID588854]; format: functional
[38] = Luminescence Cell-Based Dose Retest to Confirm Inhibitors of Cancer Stem Cells. [Related pubchem assays (depositor defined):AID2717, AID2721]; format: functional; conditions: Homo sapiens
[39] = cytotoxicity in HMLE control line with eGFP shRNA, dose response, counter-screen for HMLE_sh_ECad selective toxicity project, cell-based, HMLE_sh_eGFP, luminescence (AID 463074); format: functional, Homo sapiens;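 further: HMLE human mammary epithelial cells expressing control shRNA against eGFP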
[40] = tested on: Jurkat; assay: SAR Analysis of small molecule inhibitors of T-cell specific antigen receptor-induced NF-kB activation in a Jurkat cell line using a luminescence assay - Set 2. [Related pubchem assays (depositor defined):AID435003, AID435012, AID465]; format: functional, cell-based; conditions: Homo sapiens
[41] = tested on: HEK293; assay: cytotoxicity in HEK293T NF-kB-Luc cells, SAR follow-up, cytotoxicity control for NF-kB activator project, cell-based, resazurin fluorescence (AID 493251); format: functional; conditions: Homo sapiens
[42] = tested on: HEK293; assay: SAR Analysis of small molecule inhibitors of T-cell specific antigen receptor-induced NF-kB activation in a HEK-293T cell line using a luminescence assay - Set 2. [Related pubchem assays (depositor defined):AID435003, AID435012, AID489026]; format: functional, cell-based; conditions: Homo sapiens

SMILES: CCOC(=O)C(C)Sc1nc2c(c(=O)[nH]c(=O)n2C)n1C/C=C(/C)Cl (configuration not stated)
- IC50 [1]: > 10 µM (not active)
- EC50 [2]: 69.8 µM (active)
- EC50 [3]: 66.9 µM (active)
- EC50 [4]: 74.2 µM (active)
- EC50 [5]: 22.1 µM (inactive)

SMILES: COC(C(=O)Nc1ccnn1C1CCN(C(=O)c2ccc(C=O)cc2)CC1)c1ccccc1 (configuration not stated)
- AC50 [6]: 26.2 µM (active)

SMILES: CCN1CCN(Cc2nc3ccc([N+](=O)[O-])cc3c(=O)n2-c2ccccc2F)CC1
- IC50 [7]: 810 nM (active) and 695 nM (active)
- IC50 [8]: 1.91 µM (active)
- IC50 [9]: < 0.96 µM (active)
- IC50 [10]: 0.97 µM (active)
- IC50 [11]: 1.01 µM (active)
- IC50 [12]: 0.67 µM (active)
- IC50 [13]: 0.81 µM (active)
- IC50 [14]: 0.97 µM (active)

SMILES: O=C(CNC(=O)c1ccco1)OCC(=O)c1cccc2ccccc12
- AC50 [15]: 54.6 µM (active)

SMILES: CCCc1cc2c(=O)c(-c3ccccn3)coc2cc1OC
- AC50 [16]: 73.5 µM (active)
- EC50 [17]: > 120 µM (not active)
- EC50 [18]: 0.182 µM (active)

SMILES: Cc1ccc(NN=Nc2nc3c(=O)n(C)c(=O)n(C)c3[nH]2)cc1
- AC50 [19]: 24.7 µM (active)

SMILES: COc1cc(/C=C2/C(=O)NN(c3cccc(Cl)c3)C2=O)cc(Br)c1O
- EC50 [20]: 8.57 µM (active)
- IC50 [21]: 3.49 µM (active)
- IC50 [22]: > 20 µM (inactive)
- IC50 [23]: > 20 µM (inactive)
- IC50 [24]: > 20 µM (inactive)
- IC50 [25]: > 20 µM (inactive)
- AC50 [26]: > 100 µM (inactive)
- IC50 [27]: > 20 µM (inactive)
- IC50 [28]: > 20 µM (inactive)

SMILES: CC(C)OC(=O)CSc1nc2cc3c(cc2cc1C#N)OCO3
- AC50 [29]: > 35 µM (active)
- EC50 [30]: 10.2 µM (not active)
- AC50 [31]: > 35 µM (active)
- EC50 [32]: 18.3 µM (not active)
- EC50 [33]: 11.9 µM (not active)

SMILES: CN(C)CCC(c1ccccc1)c1ccccn1 (configuration not stated)
- AC50 [34]: 35.5 µM (inconclusive)

SMILES: CN(CCN1CCC2(CC1)C(=O)NCN2c1ccccc1)C(=O)c1ccc2ccccc2c1
- IC50 [35]: 20 µM (active)
- IC50 [36]: 20 µM (inactive)

SMILES: O=C(NCCN1CCC2(CC1)C(=O)NCN2c1ccccc1)c1cnc2ccccc2c1
- IC50 [37]: 20 µM (active)

SMILES: COc1ccc(C(=O)NNc2ccccc2)cc1
- AC50 [38]: 9.98 µM (active)
- AC50 [39]: 21.4 µM (active)

SMILES: Cc1ccc(C(NC(=O)C2CCCCC2)c2ccc3cccnc3c2O)cc1 (configuration not stated)
- IC50 [40]: 2.62 µM (active)
- IC50 [41]: 21 µM (inactive)
- IC50 [42]: 4.93 µM (active)
